Source: PMC12584752, “Covalent fragment screening to inhibit the E3 ligase activity of bacterial NEL enzymes SspH1 and SspH2” (RSC Chemical Biology, 2025)

Key:
SspH2 (aa 166–783) = target: T1, SspH2 (aa 166–783) (Salmonella typhimurium, UniProt D0ZPH9); experiment: Full kinetics characterisation of covalent labelling by intact LC-MS; assay type: binding; details: for fold higher kinact/KI with SspH2 than SspH1: SspH2 versus SspH1
T1 construct: Recombinant SspH1 (aa 161–700) and SspH2 (aa 166–783) were both characterised; His-tag (N, cleaved yes); made in house; host or cells: E. coli BL21
T1 sequence (D0ZPH9 166-783): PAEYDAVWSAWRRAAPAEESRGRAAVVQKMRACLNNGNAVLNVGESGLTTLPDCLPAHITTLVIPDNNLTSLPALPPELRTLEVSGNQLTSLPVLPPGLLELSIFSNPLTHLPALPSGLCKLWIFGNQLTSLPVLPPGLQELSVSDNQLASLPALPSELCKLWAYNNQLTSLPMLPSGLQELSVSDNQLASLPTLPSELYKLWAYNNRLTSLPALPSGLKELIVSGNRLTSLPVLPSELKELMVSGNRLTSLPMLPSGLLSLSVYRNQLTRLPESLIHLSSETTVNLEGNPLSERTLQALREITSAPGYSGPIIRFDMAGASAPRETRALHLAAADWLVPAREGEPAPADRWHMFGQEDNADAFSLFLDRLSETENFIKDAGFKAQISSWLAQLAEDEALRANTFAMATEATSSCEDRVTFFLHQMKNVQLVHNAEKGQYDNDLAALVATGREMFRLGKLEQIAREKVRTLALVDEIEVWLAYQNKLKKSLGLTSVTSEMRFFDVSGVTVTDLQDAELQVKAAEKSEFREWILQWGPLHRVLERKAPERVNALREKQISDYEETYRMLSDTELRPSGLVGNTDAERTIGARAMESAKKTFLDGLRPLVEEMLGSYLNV
Experimental: (§1) Fig. 3 Validation of HTC hit compounds by intact MS. Labelling heatmaps of dilution series (100–6.25 μM) of compounds 4–10 with (A) WT SspH1 and (B) C492K SspH1. Labelling heatmaps of dilution series of (C) compound 6 and (D) compound 7 with bacterial and human ubiquitin binding proteins. Recombinant proteins were incubated at either 1.0 or 0.5 μM with 50 μM fragments for 24 hours at 4 °C, before fragment labelling was analysed by intact LC-MS. Bacterial proteins are shown in bold and human proteins in italic fonts. (E)–(H) Kinetics analyses: time courses (0–12 hours) of compound labelling (100–1.56 μM) of SspH1 and SspH2 (0.5 μM) for (E) SspH1 and compound 7, and (F) SspH2 and compound 6. Measurements were performed in technical triplicates. Labelling percentages were plotted against time in GraphPad Prism v.10, and curves fitted separately for each replicate using one-phase association, with constraints Y0 = 0 and plateau = highest labelling percentage. Graphs for SspH1 and compound 6, and SspH2 and compound 7 are shown in Fig. S4A and B. Rate constants (kobs, as given by Graphpad Prism calculated K values) were plotted against fragment concentration in triplicate for (G) SspH1 and (H) SspH2. Straight lines were fitted with constraint Yintercept = 0. For SspH2 kinetics, 100 μM kobs was outside the linear range.
(§2) To further understand and compare the labelling of SspH1 and SspH2, we performed a full kinetic analysis of compounds 6 and 7 with both proteins (Fig. 3E–H and Fig. S4A, B). […] Up to a maximum test concentration of 100 μM, the kobsvs. concentration plot was linear for SspH1 so it was not possible to derive individual values of kinact and KI. For SspH2, the relationship was also linear up to 50 μM so it was still only possible to reliably calculate kinact/KI. Nonetheless, we can infer from these plots KI values (SspH1) >100 μM and KI values […] for compounds 6 and 7. From these lower bounds on KI it is clear that the range of ligand efficiencies reflecting the reversible binding interactions with SspH1 and 2 are low (0.19–0.21) and may hint at a challenging binding site for optimising a small molecule inhibitor. Identification of alternative hit series and/or X-ray crystallography would be expected to yield further insight into this putative small molecule binding site. […] At present we don’t understand the molecular basis for the increased reactivity of SspH2 over SspH1, and can only speculate that subtle differences in the active site environment render the catalytic cysteine more reactive.
(§3) Recombinant SspH1 (aa 161–700) and SspH2 (aa 166–783) were both characterised against compounds 6 and 7. A dilution series in DMSO was prepared for the compound, and 1 μL added to three separate wells in a 384 well plate, representing technical triplicates of each condition. 99 μL of 0.5 μM SspH1 or SspH2 in 25 mM HEPES pH 7.5, 50 mM NaCl buffer was added to the wells and mixed thoroughly (final compound concentrations 100, 50, 25, 12.5, 6.25, 3.125, 1.56 μM). This mixture was then dispensed into 8 wells of 10 μL each in a new 384 well plate, one for each time point. The plate was incubated at 4 °C during intact MS. Intact protein LC-MS was performed as previously described,[40] at approximate time points 0, 1, 2, 4, 6, 8 and 12 hours, and deconvoluted as above. The exact times of each measurement were saved with each reading and used for kinetics calculations. Labelling percentages were plotted against time in GraphPad Prism v.10, and curves fitted separately for each replicate using one-phase association, with constraints Y0 = 0 and plateau = highest labelling percentage. Rate constants (kobs, as given by Graphpad Prism calculated K values) were then plotted against concentration in triplicate, and straight lines fitted with constraint Yintercept = 0. Data are presented as mean ± SD, n = 3. Slope values were converted from μM^−1 hour^−1 to M^−1 s^−1 to give kinact/KI values. […]

SspH1 (aa 161–700) = target: T2, SspH1 (aa 161–700) (Salmonella typhimurium, UniProt D0ZVG2); experiment: as above; assay type: binding; details: for ligand efficiencies reflecting the reversible binding interactions: SspH1 and 2, from lower bounds on KI
T2 construct: Recombinant IpaH9.8 (21–545) and SspH1 (161–700) were incubated at 0.5 μM; His-tag (N, cleaved yes); made in house; host or cells: E. coli BL21
T2 sequence (D0ZVG2 161-700): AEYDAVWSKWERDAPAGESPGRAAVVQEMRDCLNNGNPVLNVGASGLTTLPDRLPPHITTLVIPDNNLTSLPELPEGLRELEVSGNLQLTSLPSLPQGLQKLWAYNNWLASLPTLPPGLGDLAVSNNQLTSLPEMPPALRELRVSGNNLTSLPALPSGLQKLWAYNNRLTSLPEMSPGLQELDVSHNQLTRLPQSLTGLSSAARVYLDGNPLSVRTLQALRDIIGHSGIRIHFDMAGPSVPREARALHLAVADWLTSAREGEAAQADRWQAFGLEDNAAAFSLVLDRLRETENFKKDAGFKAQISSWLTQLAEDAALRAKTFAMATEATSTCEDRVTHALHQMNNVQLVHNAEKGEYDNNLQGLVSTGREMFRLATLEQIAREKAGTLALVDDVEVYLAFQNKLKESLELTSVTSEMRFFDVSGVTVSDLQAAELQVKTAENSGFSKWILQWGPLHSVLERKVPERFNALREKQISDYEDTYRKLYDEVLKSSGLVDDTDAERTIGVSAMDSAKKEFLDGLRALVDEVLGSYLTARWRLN
Experimental: as §1, §2, §3

| SMILES | Ki (SspH2 (aa 166–783)) | kinact/KI (SspH2 (aa 166–783)) | fold higher kinact/KI with SspH2 than SspH1 (SspH2 (aa 166–783)) | Ki (SspH1 (aa 161–700)) | kinact/KI (SspH1 (aa 161–700)) | ligand efficiencies reflecting the reversible binding interactions (SspH1 (aa 161–700)) |
| --- | --- | --- | --- | --- | --- | --- |
| Cc1cc(-c2nc3ccccc3n2C2CCN(C(=O)CCl)CC2)cc(C)c1O.Cl [compound 6] | > 50 µM | 6.9 M⁻¹ s⁻¹ | 4–5 fold | > 100 µM | 1.2 M⁻¹ s⁻¹ | 0.19–0.21 |
| Cl.O=C(CCl)N1CCC(n2c(-c3ccc(C(F)(F)F)cc3)nc3ccccc32)CC1 [compound 7] | > 50 µM | 6.2 M⁻¹ s⁻¹ | 4–5 fold | > 100 µM | 1.4 M⁻¹ s⁻¹ | 0.19–0.21 |
